Results reported in patent US20050197350A1, “Novel quinoline, tetrahydroquinazoline, and pyrimidine derivatives and methods of treatment related to the use thereof” (TAISHO PHARMACEUTICAL CO., LTD., priority 2003, published 2005).
Counter-ions that a name gives are not always drawn.

Biological target: MCH receptor (Homo sapiens, UniProt Q99705)
Experiment: High throughput functional screening FLIPR/FDSS6000 (intracellular Ca2+ evoked by MCH)
Format: cell-based
Conditions: FLIPR/FDSS, antagonist activity vs 50 nM MCH; class by percent of control at 10^−7 M or IC50; read-out: class
Outline: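 For antagonist testing, compound-treated cells (30 min, 37 °C) were stimulated with 50 nM MCH and intracellular Ca2+ followed by Fluo4 fluorescence on FLIPR/FDSS6000. Receptor was a constitutively active, non-endogenous MCH receptor; dye loading 4 μM Fluo4-AM, 1 h, 37 °C.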

Structure (SMILES)	IC50 [nM]
Cc1cc(N(C)C)nc(N[C@H]2CC[C@@H](NC(=O)c3cccnc3S(=O)(=O)c3ccccc3C(F)(F)F)CC2)n1 [Example 3381, N-(cis-4-{[4-(dimethylamino)-6-methylpyrimidin-2-yl]amino}cyclohexyl)-2-{[2-(trifluoromethyl)phenyl]-sulfonyl}nicotinamide]	> 200
Cc1cc(N[C@H]2CC[C@@H](NC(=O)c3ccc(OC(F)(F)F)cc3)CC2)nc2ccccc12 [Example 3382, N-{cis-4-[(4-methylquinolin-2-yl)amino]cyclohexyl}-4-(trifluoromethoxy)benzamide]	< 50

Same assay, conditions: FLIPR/FDSS, antagonist activity vs 50 nM MCH; class by percent of control at 10^−7 M or IC50; table after the classification; read-out: class

Structure (SMILES)	IC50 [nM]
Cc1cc(N(C)C)nc(N[C@H]2CC[C@@H](NC(=O)c3ccc(Cl)c(F)c3)CC2)n1 [Example 3383, 4-Chloro-N-[cis-4-(4-dimethylamino6-methyl-pyrimidin-2-ylamino)-cyclohexyl]3-fluoro-benzamide hydrochloride]	< 50
Cc1cc(N(C)C)nc(N[C@H]2CC[C@@H](NC(=O)c3cc(F)cc(Cl)c3)CC2)n1 [Example 3384, 3-Chloro-N-[cis-4-(4-dimethylamino6-methyl-pyrimidin-2-ylamino)-cyclohexyl]5-fluoro-benzamide hydrochloride]	< 50
Cc1cc(N(C)C)nc(N[C@H]2CC[C@@H](NC(=O)c3cc(F)c(F)c(F)c3)CC2)n1 [Example 3385, N-[cis-4-(4-Dimethylamino-6-methyl-pyrimidin-2-ylamino)-cyclohexyl]-3,4,5-trifluoro-benzamide hydrochloride]	< 50
CNc1nc(N[C@H]2CC[C@@H](NC(=O)c3ccc(F)c(Cl)c3)CC2)ncc1C [Example 3386, 3-Chloro-4-fluoro-N-[cis-4-(5-methyl-4-methylamino-pyrimidin-2-ylamino)-cyclohexyl]-benzamide hydrochloride]	< 50
Cc1cnc(N[C@H]2CC[C@@H](NC(=O)c3ccc(Cl)c(F)c3)CC2)nc1N(C)C [Example 3387, 4-Chloro-N-[cis-4-(4-dimethylamino5-methyl-pyrimidin-2-ylamino)-cyclohexyl]3-fluoro-benzamide hydrochloride]	< 50
Cc1cnc(N[C@H]2CC[C@@H](NC(=O)c3cc(F)cc(Cl)c3)CC2)nc1N(C)C [Example 3388, 3-Chloro-N-[cis-4-(4-dimethylamino5-methyl-pyrimidin-2-ylamino)-cyclohexyl]5-fluoro-benzamide hydrochloride]	< 50
Cc1cnc(N[C@H]2CC[C@@H](NC(=O)c3cc(F)c(F)c(F)c3)CC2)nc1N(C)C [Example 3389, N-[cis-4-(4-Dimethylamino-5-methyl-pyrimidin-2-ylamino)-cyclohexyl]-3,4,5-trifluoro-benzamide hydrochloride]	< 50
Cc1cnc(N[C@H]2CC[C@@H](NC(=O)c3cc(F)cc(F)c3)CC2)nc1N(C)C [Example 3390, N-[cis-4-(4-Dimethylamino-5-methyl-pyrimidin-2-ylamino)-cyclohexyl]-3,5-difluoro-benzamide hydrochloride]	< 50
Cc1cnc(N[C@H]2CC[C@@H](NC(=O)Cc3ccc(F)c(F)c3)CC2)nc1N(C)C [Example 3391, 2-(3,4-Difluoro-phenyl)-N-[cis-4-(4-dimethylamino-5-methyl-pyrimidin-2-ylamino)-cyclohexyl]-acetamide hydrochloride]	< 50
Cc1cnc(N[C@H]2CC[C@@H](NC(=O)c3ccc(F)c(Cl)c3)CC2)nc1N [Example 3392, N-[cis-4-(4-Amino-5-methyl-pyrimidin-2-ylamino)-cyclohexyl]-3-chloro-4-fluoro-benzamide hydrochloride]	> 200
CN(C)c1ccnc(N[C@H]2CC[C@@H](NC(=O)COc3ccc(Cl)c(Cl)c3)CC2)n1 [Example 3393, 2-(3,4-Dichloro-phenoxy)-N-[cis-4-(4-dimethylamino-pyrimidin-2-ylamino)-cyclohexyl]-acetamide hydrochloride]	< 50
COc1cccc(OCC(=O)N[C@H]2CC[C@@H](Nc3nccc(N(C)C)n3)CC2)c1 [Example 3394, N-[cis-4-(4-Dimethylamino-pyrimidin-2-ylamino)-cyclohexyl]-2-(3-methoxy-phenoxy)-acetamide hydrochloride]	< 50
Cc1cc(N[C@H]2CC[C@@H](NC(=O)c3cncc(Cl)c3)CC2)nc2ccccc12 [Example 3396, 5-Chloro-N-[cis-4-(4-methyl-quinolin-2-ylamino)-cyclohexyl]-nicotinamide]	< 50
Cc1cc(N[C@H]2CC[C@@H](NC(=O)c3cncc(F)c3)CC2)nc2ccccc12 [Example 3397, 5-Fluoro-N-[cis-4-(4-methyl-quinolin-2-ylamino)-cyclohexyl]-nicotinamide]	< 50
